Laboratory results reported in patent US5852191A, “Rigidized monomethine cyanines” (Carnegie Mellon University, priority 1995, dated 1998).
Where two headings read alike, the source gives them in different places.

How the values were obtained:
[1] = Dimer formation of dye by UV spectrum on thin glass slide; format: physicochemical
[2] = Literature spectral properties of prior art fluorescent dyes; format: physicochemical
[3] = cited from earlier work; for RI (relative intensity): 1.00 = intensity of the dye in methanol
[4] = cited from earlier work
[5] = Absorption/emission spectra and molar extinction coefficients of the compounds of Examples A and B in solvents (Table 3); format: physicochemical; details: for Shape of emission spectrum relative to absorption spectrum: FIG. 3 and FIG. 4; for Stokes shift: solvents of Table 3
From the text: (§1) The observed absorption maxima, molar extinction coefficients, emission maxima and qualitative solubility data for the boron-rigidized complexes of Examples A and B are provided in Table 3.

[6] = Qualitative solubility of the compounds of Examples A and B (Table 3); format: physicochemical; details: applies to either dye compound
From the text: as §1

[7] = Relative fluorescence intensities of the compounds of Examples A and B in a variety of solvents (Table 4); format: physicochemical
From the text: See M. T. Ramos et al., Heterocycles, Vol. 29, p. 165 (1989).

[8] = Resistance to photodegradation (500 watt mercury vapor lamp; optical density monitored); format: physicochemical; details: for Red shift at the maximum wavelength / Resistance to photofading compared with the Coumarin dyes: dichloromethane; for Photofading rate compared with the corresponding Coumarin compound: methanol, 500 watt mercury vapor lamp
From the text: The resistance to photodegradation of the compounds of Examples A and B in methanol and dichloromethane was also investigated and was compared with photofading rates of certain Coumarin dyes. A degassed solution of each dye in a quartz cuvette was illuminated with a 500 watt mercury vapor lamp from a distance of 4 inches. The solution optical density at maximum wavelength was monitored as a function of time.

[9] = Relative fluorescence of boron-rigidized vs unrigidized dye in methanol (FIG. 2); format: physicochemical; details: excited at 348 nm, vs bis-benzoxazolylmethene hydrochloride
From the text: The present inventors have determined that the rigidization of the basic monomethine cyanine structure increase the quantum efficiency of the dye molecules as much as 5 to 20 times. Thus, the boron-rigidized dyes of the present invention are unusually fluorescent compared with nonrigidized cyanine dye molecules. The present invention thus provides a method for increasing the fluorescence of dyes by rigidizing monomethine cyanine compounds with a boron bridge. Rigidization increase the planarity of the compound, and the fluorescence intensity.

[10] = Absorptive and emissive wavelength maxima and fluorescence of the compounds of Examples C to I; format: physicochemical; details: for Maximum absorptive wavelength / Maximum emissive wavelength: measured in methanol; for Fluorescence (in words): qualitative, methanol where stated

O=C(O)CC1=C2Sc3cc(S(=O)(=O)O)ccc3N2[B-](F)(F)[n+]2c1sc1cc(S(=O)(=O)O)ccc12
Dimer by UV spectrum ([1]; HMPA): absence of dimer

7-amino-4-methylcoumarin acetate
Fluorescence capacity (extinction coefficient x quantum yield) relative to the present inventions' compounds [2]: approximately one-quarter

O=C(Cc1ccc2c(c1)N1C(=Cc3oc4ccc(CC(=O)ON5C(=O)CCC5=O)cc4[n+]3[B-]1(F)F)O2)ON1C(=O)CCC1=O [Blue 1-OSu, disuccinimidyl benzoxazolylmethene borondifluoride complex]
Dimer by UV spectrum ([1]; DMF reaction mixture): presence of dimer

CC1=CC(C)=[N+]2C1=Cc1c(C)cc(C)n1[B-]2(F)F [Bodipy, 3,3',5,5'-tetramethyl-2,2'-pyrromethene-1,1'-boron-difluoride]
RI (relative intensity) ([3]; Acetonitrile): 0.87 | Extinction coefficient ([3]; Acetonitrile): 86.7 cm⁻¹ mM⁻¹ | Max. absorption wavelength ([3]; Acetonitrile): 501 nm | Max. emission wavelength ([3]; Acetonitrile): 508 nm | RI (relative intensity) ([3]; Dioxane): 0.63 | Extinction coefficient ([3]; Dioxane): 80.0 cm⁻¹ mM⁻¹ | Max. absorption wavelength ([3]; Dioxane): 505 nm | Max. emission wavelength ([3]; Dioxane): 512 nm | RI (relative intensity) ([3]; Methanol): 1.00 | Extinction coefficient ([3]; Methanol): 85.3 cm⁻¹ mM⁻¹ | Max. absorption wavelength ([3]; Methanol): 501 nm | Max. emission wavelength ([3]; Methanol): 509 nm | RI (relative intensity) ([3]; Water): 0.48 | Max. absorption wavelength ([3]; Water): 500 nm | Max. emission wavelength ([3]; Water): 508 nm | Maximum absorptive wavelength ([4]; aqueous media): 500 nm | Maximum emissive wavelength ([4]; aqueous media): 508 nm | Emission maximum ([4]; solvent not stated): 508 nm

CC1=CC(C)=[N+]2C1=Cc1c(C)c(S(=O)(=O)O)c(C)n1[B-]2(F)F [Bodipy-sulfonate, 4-Sulfonato-3,3'5,5'-Tetramethyl-2,2'-Pyrromethene-1,1'-Borondifluoride Complex]
RI (relative intensity) ([3]; Acetonitrile): 0.69 | Extinction coefficient ([3]; Acetonitrile): 58.9 cm⁻¹ mM⁻¹ | Max. absorption wavelength ([3]; Acetonitrile): 504 nm | Max. emission wavelength ([3]; Acetonitrile): 514 nm | RI (relative intensity) ([3]; Dioxane): 0.64 | Extinction coefficient ([3]; Dioxane): 52.7 cm⁻¹ mM⁻¹ | Max. absorption wavelength ([3]; Dioxane): 506 nm | Max. emission wavelength ([3]; Dioxane): 518 nm | RI (relative intensity) ([3]; Methanol): 1.00 | Extinction coefficient ([3]; Methanol): 57.7 cm⁻¹ mM⁻¹ | Max. absorption wavelength ([3]; Methanol): 500 nm | Max. emission wavelength ([3]; Methanol): 515 nm | RI (relative intensity) ([3]; Water): 0.67 | Extinction coefficient ([3]; Water): 39.7 cm⁻¹ mM⁻¹ | Max. absorption wavelength ([3]; Water): 494 nm | Max. emission wavelength ([3]; Water): 509 nm

F[B-]1(F)N2C(=Cc3sc4ccccc4[n+]31)Sc1ccccc12 [Example A, Bis-benzothiazolylmethene Borondifluoride]
Logarithm of the Extinction coefficient ([5]; Acetonitrile): 4.97 M^-1 cm^-1 | Max. absorption wavelength ([5]; Acetonitrile): 418 nm | Max. emission wavelength ([5]; Acetonitrile): 423 nm | Logarithm of the Extinction coefficient ([5]; Chloroform): 4.97 M^-1 cm^-1 | Max. absorption wavelength ([5]; Chloroform): 420 nm | Max. emission wavelength ([5]; Chloroform): 425 nm | Max. absorption wavelength ([5]; Ethanol): 418 nm | Max. emission wavelength ([5]; Ethanol): 423 nm | Logarithm of the Extinction coefficient ([5]; Ethyl Acetate): 4.98 M^-1 cm^-1 | Max. absorption wavelength ([5]; Ethyl Acetate): 418 nm | Max. emission wavelength ([5]; Ethyl Acetate): 423 nm | Shape of emission spectrum relative to absorption spectrum [5]: mirrors its absorption spectrum | Max. absorption wavelength ([5]; Methanol): 418 nm | Max. emission wavelength ([5]; Methanol): 422 nm | Logarithm of the Extinction coefficient ([5]; Toluene): 4.95 M^-1 cm^-1 | Max. absorption wavelength ([5]; Toluene): 420 nm | Max. emission wavelength ([5]; Toluene): 427 nm | Stokes shift [5]: 5-7 nm | Solubility data (qualitative) ([6]; Acetonitrile): sol. | Solubility data (qualitative) ([6]; Chloroform): sol. | Solubility data (qualitative) ([6]; Ethanol): sparingly | Solubility data (qualitative) ([6]; Ethyl Acetate): sol. | Solubility data (qualitative) ([6]; Methanol): sparingly | Solubility data (qualitative) ([6]; Toluene): sol. | Relative fluorescence intensity ([7]; Acetonitrile): 0.89 | Relative fluorescence intensity ([7]; Chloroform): 0.91 | Relative fluorescence intensity ([7]; Ethyl Acetate): 0.97 | Relative fluorescence intensity ([7]; Methanol): 0.89 | Relative fluorescence intensity ([7]; Toluene): 0.81 | Red shift at the maximum wavelength [8]: approximately 12 nm | Resistance to photofading compared with the Coumarin dyes [8]: more resistant to photofading than the Coumarin dyes | Photofading rate compared with the corresponding Coumarin compound [8]: faded somewhat faster

F[B-]1(F)N2C(=Cc3oc4ccccc4[n+]31)Oc1ccccc12 [Example B, Bis-benzoxazolylmethene Borondifluoride]
Logarithm of the Extinction coefficient ([5]; Acetonitrile): 4.72 M^-1 cm^-1 | Max. absorption wavelength ([5]; Acetonitrile): 358 nm | Max. emission wavelength ([5]; Acetonitrile): 385 nm | Logarithm of the Extinction coefficient ([5]; Chloroform): 4.72 M^-1 cm^-1 | Max. absorption wavelength ([5]; Chloroform): 360 nm | Max. emission wavelength ([5]; Chloroform): 386 nm | Max. absorption wavelength ([5]; Ethanol): 358 nm | Max. emission wavelength ([5]; Ethanol): 386 nm | Logarithm of the Extinction coefficient ([5]; Ethyl Acetate): 4.74 M^-1 cm^-1 | Max. absorption wavelength ([5]; Ethyl Acetate): 358 nm | Max. emission wavelength ([5]; Ethyl Acetate): 383 nm | Shape of emission spectrum relative to absorption spectrum [5]: appears to be much broader | Max. absorption wavelength ([5]; Methanol): 358 nm | Max. emission wavelength ([5]; Methanol): 385 nm | Logarithm of the Extinction coefficient ([5]; Toluene): 4.74 M^-1 cm^-1 | Max. absorption wavelength ([5]; Toluene): 360 nm | Max. emission wavelength ([5]; Toluene): 392 nm | Stokes shift [5]: 28 nm | Solubility data (qualitative) ([6]; Acetonitrile): sol. | Solubility data (qualitative) ([6]; Chloroform): sol. | Solubility data (qualitative) ([6]; Ethanol): sparingly | Solubility data (qualitative) ([6]; Ethyl Acetate): sol. | Solubility data (qualitative) ([6]; Methanol): sparingly | Solubility data (qualitative) ([6]; Toluene): sol. | Relative fluorescence intensity ([7]; Acetonitrile): 1.39 | Relative fluorescence intensity ([7]; Chloroform): 1.27 | Relative fluorescence intensity ([7]; Ethanol): 1.33 | Relative fluorescence intensity ([7]; Ethyl Acetate): 1.20 | Relative fluorescence intensity ([7]; Methanol): 1.35 | Relative fluorescence intensity ([7]; Toluene): 1.42 | Red shift at the maximum wavelength [8]: approximately 12 nm | Resistance to photofading compared with the Coumarin dyes [8]: more resistant to photofading than the Coumarin dyes | Photofading rate compared with the corresponding Coumarin compound [8]: faded at a similar rate | Quantum yield compared with the unrigidized dye [9]: several fold greater than the unrigidized dye

O=C(O)Cc1ccc2c(c1)N1C(=Cc3oc4ccc(CC(=O)O)cc4[n+]3[B-]1(F)F)O2 [Example C, Bis-carboxymethyl Benzoxazolylmethene Borondifluoride]
Maximum absorptive wavelength [10]: 362 nm | Maximum emissive wavelength [10]: 386 nm | Fluorescence (in words) [10]: highly fluorescent

F[B-]1(F)N2C(=Cc3sc4ccccc4[n+]31)Oc1ccccc12 [Example D]
Maximum absorptive wavelength [10]: 388 nm | Maximum emissive wavelength [10]: 414 nm | Fluorescence (in words) [10]: highly fluorescent

CC(=O)C1=C2Sc3ccccc3N2[B-](F)(F)[n+]2c1sc1ccccc12 [Example E]
Maximum absorptive wavelength [10]: 416 nm | Fluorescence (in words) [10]: less fluorescent than the base benzothiazole chromophore

F[B-]1(F)N2C=CC=CC2=Cc2sc3ccccc3[n+]21 [Example F, Benzothiazolyl Pyridylmonomethine Borondifluoride]
Maximum absorptive wavelength [10]: 430 nm | Maximum emissive wavelength [10]: 476 nm | Fluorescence (in words) [10]: high fluorescence

N#CC1=C2C=CC=CN2[B-](F)(F)[n+]2ccccc21 [Example G]
Maximum absorptive wavelength [10]: 432 nm | Maximum emissive wavelength [10]: 460 nm | Fluorescence (in words) [10]: very fluorescent

F[B-]1(F)N2C(=Cc3ccc4ccccc4[n+]31)C=Cc1ccccc12 [Example H, Bis-Quinolinemethene Borondifluoride]
Maximum absorptive wavelength [10]: 512 nm | Maximum emissive wavelength [10]: 518 nm | Fluorescence (in words) [10]: intense green fluorescence

F[B-]1(F)N2C(=Cc3ccc4ccccc4[n+]31)Sc1ccccc12 [Example I, 2(2'-Benzothiazolylmethene)Quinoline Borondifluoride]
Maximum absorptive wavelength [10]: 480 nm | Maximum emissive wavelength [10]: 492 nm | Fluorescence (in words) [10]: green fluorescence
